Measurements: ChEMBL document CHEMBL1201862, “PubChem BioAssay data set” (2004)
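Exposure lasted 48 hours, with cells grown in 96-well plates and compounds tested at five concentrations. Abbreviation: GI50, concentration required for 50% inhibition of growth.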 Calls of active or inactive are those of the source. No stated cut-off is given here; in the data, active = GI50 up to about 1.1 µM and inactive = higher.

How the values were obtained:
Experiment in all cases: inhibition of tumour cell growth, NCI panel, 48 h
LOX IMVI = test system: LOX IMVI
PC-3 = test system: PC-3
NCI/ADR-RES = test system: NCI/ADR-RES
HL-60 = test system: HL-60
CCRF-CEM = test system: CCRF-CEM
MDA-N = test system: MDA-N
BT-549 = test system: BT-549
MCF7 = test system: MCF7
A498 = test system: A498
CAKI-1 = test system: CAKI-1
T47D = test system: T47D
TK-10 = test system: TK-10
SK-MEL-2 = test system: SK-MEL-2
SF-268 = test system: SF-268
HOP-62 = test system: HOP-62
UACC-62 = test system: UACC-62
M14 = test system: M14
SR = test system: SR

Measured: GI50

O=C(CSc1nc2ccc([N+](=O)[O-])cc2s1)c1ccc2ccccc2c1
inactive: LOX IMVI > 100 µM | PC-3 88.1 µM | NCI/ADR-RES > 100 µM | HL-60 > 100 µM | CCRF-CEM 84.5 µM | MDA-N > 100 µM | BT-549 > 100 µM | MCF7 > 100 µM | A498 > 100 µM | CAKI-1 > 100 µM | T47D > 100 µM | TK-10 54.2 µM | SK-MEL-2 > 100 µM | SF-268 > 100 µM | HOP-62 > 100 µM | UACC-62 > 100 µM | M14 > 100 µM

COC(=O)C(C(=O)C(=O)NC1Nc2ccc(C)cc2S1)c1nc2ccc(Cl)cc2nc1O (stereo not drawn)
inactive: LOX IMVI > 100 µM | PC-3 > 100 µM | NCI/ADR-RES > 100 µM | HL-60 > 100 µM | MDA-N > 100 µM | BT-549 > 100 µM | MCF7 > 100 µM | A498 > 100 µM | CAKI-1 > 100 µM | T47D > 100 µM | TK-10 > 100 µM | SK-MEL-2 > 100 µM | SF-268 > 100 µM | HOP-62 > 100 µM | UACC-62 > 100 µM

CC(=O)c1sc2n(C)c(=O)c3ccccc3[n+]2c1C
inactive: LOX IMVI > 100 µM | PC-3 > 100 µM | NCI/ADR-RES > 100 µM | HL-60 > 100 µM | CCRF-CEM > 100 µM | MDA-N > 100 µM | BT-549 > 100 µM | MCF7 > 100 µM | CAKI-1 > 100 µM | T47D > 100 µM | TK-10 > 100 µM | SK-MEL-2 > 100 µM | SF-268 > 100 µM | HOP-62 > 100 µM | SR > 100 µM | UACC-62 > 100 µM | M14 > 100 µM

c1cc(Sc2nc(Sc3ccncc3)nc(Sc3ccncc3)n2)ccn1
inactive: LOX IMVI > 100 µM | PC-3 > 100 µM | NCI/ADR-RES > 100 µM | HL-60 > 100 µM | CCRF-CEM > 100 µM | MDA-N > 100 µM | BT-549 > 100 µM | MCF7 > 100 µM | A498 > 100 µM | CAKI-1 > 100 µM | T47D > 100 µM | TK-10 > 100 µM | SK-MEL-2 > 100 µM | SF-268 > 100 µM | HOP-62 > 100 µM | UACC-62 > 100 µM | M14 > 100 µM

O=C(N/N=C(COc1ccccc1Cl)\N=C\c1cccnc1)c1ccncc1
inactive: LOX IMVI > 100 µM | PC-3 > 100 µM | NCI/ADR-RES > 100 µM | HL-60 > 100 µM | CCRF-CEM > 100 µM | MDA-N > 100 µM | BT-549 > 100 µM | MCF7 > 100 µM | A498 > 100 µM | CAKI-1 > 100 µM | T47D > 100 µM | TK-10 > 100 µM | SK-MEL-2 > 100 µM | SF-268 > 100 µM | HOP-62 > 100 µM | UACC-62 > 100 µM | M14 > 100 µM

CC(C)c1ccc2c(c1)C=C1OC(=O)[C@]3(C)CCC[C@@]2(C)C13 (stereo partly drawn)
inactive: PC-3 > 100 µM | NCI/ADR-RES > 100 µM | HL-60 44.2 µM | CCRF-CEM > 100 µM | MDA-N > 100 µM | BT-549 > 100 µM | MCF7 > 100 µM | CAKI-1 > 100 µM | T47D > 100 µM | TK-10 > 100 µM | SF-268 > 100 µM | HOP-62 > 100 µM | SR > 100 µM | UACC-62 > 100 µM | M14 > 100 µM
